Reference: patent US6632808B1 (priority 1998, dated 2003)
Like-named read-outs stand apart in the source and are kept apart here. Marks after values point to notes of the source that are not given here.

Assays:
[1] = system: PrP-res formation in scrapie infected neuroblastoma (ScNB) cells; format: cell-based, mouse; conditions: for IC50: ScNB cells; for % control PrP-res (at 10 μg TSP/ml): 10 μg/ml (~10 μM) meso-porphyrin, relative to untreated ScNB cells
[2] = target: conversion of hamster PrP-sen to PrP-res (Mesocricetus auratus, UniProt P04273); format: biochemical; conditions: 10 μg/ml tetrapyrrole; for conversion, % of control: mean SD
conversion of hamster PrP-sen to PrP-res, sequence (P04273 23-230 limits assumed): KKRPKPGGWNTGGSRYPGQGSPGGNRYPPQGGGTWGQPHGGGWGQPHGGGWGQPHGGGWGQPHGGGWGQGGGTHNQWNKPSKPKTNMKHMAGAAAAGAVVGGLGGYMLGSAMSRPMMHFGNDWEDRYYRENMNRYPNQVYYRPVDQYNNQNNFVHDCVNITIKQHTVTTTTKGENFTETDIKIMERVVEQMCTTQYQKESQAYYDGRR

[3] = mouse, in vivo, ip
[4] = have been reported; cited from earlier work
[5] = footnote b values are half-way between 10-fold dilutions (~±50%), read-out: IC50 (μM), PrP-res formation, meso-porphyrins

Compound	% control PrP-res (at 10 μg TSP/ml) [1]	IC50 [1, 5]	other results
Phthalocyanine tetrasulfonate [PcTS]			% control PrP-res (at 10 μg Pc/ml) ([1]; 10 μg Pc/ml (about 10 μM) in medium, 3-4 days, band intensity relative to untreated ScNB cells, mean ± SD): <3%; IC50 ([1]; concentration giving 50% inhibition of PrP-res formation relative to control, footnote a values are half-way between 10-fold dilutions (±50%), read-out: IC50 (μM), PrP-res formation, phthalocyanines): 0.5 µM; conversion, % of control [2]: 0±0%; time detectable in the spleen after treatment had stopped [3]: at least 8 months
C1=Cc2nc1c(-c1ccncc1)c1ccc([nH]1)c(-c1ccncc1)c1nc(c(-c3ccncc3)c3ccc([nH]3)c2-c2ccncc2)C=C1 [T(4-Py)P]	12 ± 0^a %		
O=S(=O)(O)c1ccc(-c2c3nc(c(-c4ccc(S(=O)(=O)O)cc4)c4ccc([nH]4)c(-c4ccc(S(=O)(=O)O)cc4)c4nc(c(-c5ccc(S(=O)(=O)O)cc5)c5ccc2[nH]5)C=C4)C=C3)cc1 [T(Ph-4-SO^−3)P]	44 ± 31%	~5 µM	tolerability [4]: well tolerated
C[n+]1ccc(-c2c3nc(c(-c4cc[n+](C)cc4)c4ccc([nH]4)c(-c4cc[n+](C)cc4)c4nc(c(-c5cc[n+](C)cc5)c5ccc2[nH]5)C=C4)C=C3)cc1 [T(N-Me-4-Py)P]	50 ± 0%		conversion, % of control [2]: 66±18%
C[n+]1ccccc1-c1c2nc(c(-c3cccc[n+]3C)c3ccc([nH]3)c(-c3cccc[n+]3C)c3nc(c(-c4cccc[n+]4C)c4ccc1[nH]4)C=C3)C=C2 [T(N-Me-2-Py)P]	4 ± 3%	~5 µM	inhibition of cell-free conversion, in words [2]: not significantly inhibitory
C[n+]1cccc(-c2c3nc(c(-c4ccc[n+](C)c4)c4ccc([nH]4)c(-c4ccc[n+](C)c4)c4nc(c(-c5ccc[n+](C)c5)c5ccc2[nH]5)C=C4)C=C3)c1 [T(N-Me-3-Py)P]	50 ± 0^a %		
C[N+](C)(C)c1ccc(-c2c3nc(c(-c4ccc([N+](C)(C)C)cc4)c4ccc([nH]4)c(-c4ccc([N+](C)(C)C)cc4)c4nc(c(-c5ccc([N+](C)(C)C)cc5)c5ccc2[nH]5)C=C4)C=C3)cc1 [T(Ph-4-NMe^+3)P]		5 ± 0.8 µM	inhibition of cell-free conversion, in words [2]: not significantly inhibitory
O=C(O)c1ccc(-c2c3nc(c(-c4ccc(C(=O)O)cc4)c4ccc([nH]4)c(-c4ccc(C(=O)O)cc4)c4nc(c(-c5ccc(C(=O)O)cc5)c5ccc2[nH]5)C=C4)C=C3)cc1 [T(Ph-4-COOH)P]	50 ± 0%		
